The source of these data is patent publication US20260193229A1, “BRISC DEUBIQUITINATING ENZYME INHIBITORS” (THE TRUSTEES OF THE UNIVERSITY OF PENNSYLVANIA, priority 2022, published 2026).

The target of one data set is T1, BRISC (Homo sapiens, UniProt P46736+Q15018).
T1 construct: made in house; host or cells: insect cells (MultiBac baculovirus)
Kind of data set: BRISC DUB inhibition assay with quenched K63-linked di-ubiquitin substrate (TAMRA fluorescence). Type of data set: biochemical. As for the experimental part:
High throughput screening. A baculoviral expression system was established to purify milligram quantities of the entire BRISC complex from insect cells. The MultiBac system was used to clone all 4 components of the BRISC complex into one vector which was then packaged into the baculovirus genome using the methods described in Zeqiraj et al., 2015 (Mol. Cell).
The assay buffer included: 50 mM HEPES-NaOH, pH 7.0; 100 mM NaCl; 1 mM DTT; 1 mg/ml BSA; and 0.03% Brij-35. BRISC was assayed at 1 nM (final concentration) with the substrate at 500 nM (final concentration). The final reaction volume was 20 μl in each 384 plate well (Corning, #3573; black, low flange, flat bottom) with a final concentration of compounds of 10 μM.
A 5 ml of enzyme solution with BRISC at 2 nM in assay buffer was made by adding 10 μl of BRISC working stock (1 μM) to 5 ml of assay buffer. A 5 ml of substrate solution was made with […] of K63-diUbiquitin (made in-house) plus […] of IQF K63-diUbiquitin by adding the appropriate volumes of diUbiquitins to 5 ml of assay buffer. 45 μL of BRISC (enzyme solution) was dispensed into columns 1-11 of a 96 well PCR plate (skirted). Buffer was only dispensed in column 12 (no enzyme control). 45 μl of substrate solution was dispensed into columns 1-12 of a 96 well PCR plate (skirted). The plate was spun down at 3000 rpm (bench top centrifuge) at room temp for 2 min to remove any air bubbles. Using a Biomek FX, liquid handler (Bekman), 10 μl of BRISC (enzyme solution) was dispensed into the 4 quadrants of a 384 well plate. 200 nl of compounds was dispensed into each well of the 384 plates using the pin tool (columns A and B usually contain DMSO only, and serve as controls), and the plates were incubated for 10-15 minutes at room temperature. 10 μl of substrate solution was dispensed into the 4 quadrants of the 384 well plate. The plate was then incubated for 30 min at room temperature in the dark and read with settings suitable for detecting TAMRA fluorescence (excitation wavelength of 540 nm and emission wavelength of 580 nm). A PHERAStar plate (BMG labtech) reader was used with a gain value of 570. The Intensity/Background (I/Bg), defined as [(Average of columns 1 and 2; DMSO controls)/(Average of columns 23 and 24; no enzyme controls)], were about 5.
The activities of the compounds disclosed in the present disclosure in inhibiting BRCC36 enzyme activity was measured in accordance with the method disclosed in Example 2.

In a further data set the target is T2, USP2 (Homo sapiens, UniProt O75604).
T2 sequence (O75604 1-605): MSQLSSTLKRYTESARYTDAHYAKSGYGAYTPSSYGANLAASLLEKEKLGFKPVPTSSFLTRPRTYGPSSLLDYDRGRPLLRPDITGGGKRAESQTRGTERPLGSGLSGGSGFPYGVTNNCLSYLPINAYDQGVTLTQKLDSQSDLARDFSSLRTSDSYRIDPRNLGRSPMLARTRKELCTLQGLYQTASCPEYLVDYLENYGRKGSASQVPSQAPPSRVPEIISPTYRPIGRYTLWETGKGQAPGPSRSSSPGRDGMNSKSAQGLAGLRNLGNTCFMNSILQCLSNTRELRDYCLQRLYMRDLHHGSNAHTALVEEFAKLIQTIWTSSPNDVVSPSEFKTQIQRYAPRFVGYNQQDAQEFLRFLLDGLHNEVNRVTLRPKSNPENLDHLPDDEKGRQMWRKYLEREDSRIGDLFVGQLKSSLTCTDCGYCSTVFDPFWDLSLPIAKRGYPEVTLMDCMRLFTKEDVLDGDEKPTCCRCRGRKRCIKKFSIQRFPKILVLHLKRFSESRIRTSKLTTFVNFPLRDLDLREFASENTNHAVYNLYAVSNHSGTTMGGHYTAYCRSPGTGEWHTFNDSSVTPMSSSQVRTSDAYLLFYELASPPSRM
Kind of data set: Selectivity counter-assay against USP2. Type of data set: biochemical. As to conditions: FIG. 6C / 7A.

The next data set concerns trypsin. Kind of data set: Selectivity counter-assay against trypsin. Type of data set: biochemical. As to conditions: FIG. 6C / 7A.
For data set [1], the target named is ARISC (BRCC36-Abraxas-BRCC45-MERIT40) (Homo sapiens, UniProt P46736). Kind of data set: Cross-reactivity against ARISC holoenzyme. Format: biochemical. As to conditions: FIG. 7A.
Data set [2] addresses RAP80 (BRCC36-Abraxas-BRCC45-MERIT40-RAP80) complex (Homo sapiens, UniProt P46736). Kind of data set: Cross-reactivity against RAP80 holoenzyme. As to conditions: FIG. 7A. Type of data set: biochemical.
A further data set deals with T3, BRCC36 enzyme activity (Homo sapiens, UniProt P46736+Q15018).
T3 construct: made in house; host or cells: insect cells (MultiBac baculovirus)
Kind of data set: Mode of inhibition: increasing di-Ubiquitin substrate and free Zn2+. Type of data set: biochemical.

For a further data set, the system named is human cells. Kind of data set: Cellular toxicity in human cells. Type of data set: cell-based. As to conditions: 5 μM.

Like-named read-outs stand apart in the source and are kept apart here.

With `O=C(NC1CCNCC1)c1nn(C(=O)c2c(Cl)cccc2Cl)cc1NC(=O)c1c(Cl)cccc1Cl` [Compound 1, 4-(2,6-dichlorobenzamido)-1-(2,6-dichlorobenzoyl)-N-(piperidin-4-yl)-1H-pyrazole-3-carboxamide], the 50% inhibitory concentration (IC50) (usually the concentration at which inhibition is half-maximal) at BRISC (Table 1, Activity Range Table) was 1 to 10 µM. At USP2, the “selectivity for BRISC versus USP2” value is listed as “selectivity for BRISC”. Further, in the data set with trypsin, the “selectivity for BRISC versus trypsin” value is listed as “selectivity for BRISC”. In data set [1], the “cross reactivity to ARISC holoenzyme” value was “no significant cross reactivity”. Besides, the “cross reactivity to RAP80 holoenzyme” value in data set [2] was “no significant cross reactivity”. Moreover, the mode of inhibition entry at BRCC36 enzyme activity is listed as “non-competitive inhibitors”.
As for `CS(=O)(=O)n1cc(NC(=O)c2c(Cl)cccc2Cl)c(C(=O)NC2CCNCC2)n1` [Compound 2, 4-(2,6-dichlorobenzamido)-1-(methylsulfonyl)-N-(piperidin-4-yl)-1H-pyrazole-3-carboxamide], the IC50 on BRISC (Table 1, Activity Range Table) fell in the range of 1 to 10 µM. In the data set with human cells, the cellular toxicity result is given as “no detectable cellular toxicity”.
In the case of `CCOc1cc(C(C)(C)C)ccc1C1=N[C@@](C)(c2ccc(Cl)cc2)[C@@](C)(c2ccc(Cl)cc2)N1C(=O)N1CCN(CC(=O)NCCOCCOCCn2cc(CCCCOc3ccc(S(=O)(=O)n4cc(NC(=O)c5c(Cl)cccc5Cl)c(C(=O)NC5CCNCC5)n4)cc3)nn2)CC1` [Compound 42, 1-(4-(4-(1-(2-(2-(2-(2-(4-((4S,5R)-2-(4-Tert-butyl-2-ethoxyphenyl)-4,5-bis(4-chlorophenyl)-4,5-dimethyl-4,5-dihydro-1H-imidazole-1-carbonyl)piperazin-1-yl)acetamido)ethoxy)ethoxy)ethyl)-1H-1,2,3-triazol-4-yl)butoxy)phenylsulfonyl)-4-(2,6-dichlorobenzamido)-N-(piperidin-4-yl)-1H-pyrazole-3-carboxamide], at BRISC (Table 2, method of Example 2, read-out: BRISC IC50 μM Range), the 50% inhibitory concentration (IC50) is 0.1 to 1 µM.
In the case of `O=C(NC1CCNCC1)c1nn(C(=O)Nc2ccc(Cl)cc2)cc1NC(=O)c1c(Cl)cccc1Cl` [Compound 35], the IC50 against BRISC (Table 1, Activity Range Table) is 50 to 300 µM.
